Results on four compounds are retold here after US9789058B2, “Ophthalmic composition for the treatment of ocular infection” (CooperVision International Holding Company, LP, priority 2014, dated 2017).

One may read the MIC as the least concentration at which growth counts as inhibited. One may read the MIC50 as an inhibitory concentration at the 50% level, which refers to growth in some studies and to a panel of isolates in others. Broadly, the MIC90 is the lowest concentration that inhibits either 90% of growth or 90% of the strains tested, depending on the study.

Data set [1] deals with methicillin-susceptible S. aureus (MSSA). The experiment in a line: Broth microdilution susceptibility (MIC), MSSA isolates. In kind it is cell-based, Staphylococus aureus. Particulars: N=25 isolates. Here is the method: (§1) The MIC50 and MIC90 of εPL against methicillin-sensitive Staphylococus aureus) and MRSA were determined in these studies. (The “Minimum”, “Maximum”, and MIC50 and MIC90 in the Table are provided in units of μg/ml.) Other antimicrobial agents such as tobramycin, moxifloxacin, and PHMB (polyhexamethylene biguanid) were included for comparison. Broth microdilution tests were performed in accordance with the Clinical and Laboratory Standards Institute (CLSI) (M07-A9, Vol. 32 No. 2, January, 2012) for aerobic and facultative anaerobic strains. Cation-adjusted Mueller-Hinton broth was used for testing staphylococci species.
A general note: Broth dilution looks for growth in wells or tubes with falling amounts of substance.

Data set [2] has as its system methicillin-resistant S. aureus (MRSA). Briefly: Broth microdilution susceptibility (MIC), MRSA isolates. In kind it is cell-based, Staphylococus aureus. Particulars: for MIC / MIC50 / MIC90 / Maximum (MIC) / Minimum (MIC): MRSA, N=25 isolates. Here is the method:
as §1

The subject of another data set is MRSA strain K-950. The experiment in a line: Time-kill study (bactericidal activity). The data set is classed as cell-based, Staphylococus aureus. The settings on record: for decrease of MRSA colony counts: 8 hours post-inoculation. Here is the method:
The bactericidal activity of εPL against MRSA strain K-950 was evaluated. […] Test tubes containing 0.5 mL of εPL at 0.25 μg/mL, 1.0 μg/mL, 4.0 μg/mL or 16.0 μg/mL εPL in Mueller Hinton broth growth media and approximately 10^6 CFU/mL of K-950 were incubated at 37° C. After 1, 2, 4, 6, 8 and 24 hours of incubation, the test tubes were removed and colony forming units were calculated. To calculate CFU, 100 μL of the medium was removed from a tube and serially diluted (1:10 dilutions) in the medium. Aliquots of 100 μL of each dilution were plated, in duplicate, onto TSA agar plates containing 5% sheep's blood. The plates were incubated at 37° C. overnight and the colonies were counted the next day.

The nature of data set [3]: Ocular toxicity study in rabbits. In kind it is in vivo. Here is the method: Rabbits were divided into three treatment groups, each was treated with increasing concentrations of εPL (50, 150, and 500 μg/mL) in phosphate buffered saline (PBS) at pH 7.3. Specifically, rabbits from each group were dosed with a drop of εPL solution in the left eye of a rabbit eight times during a seven-hour period. The right eye was dosed with PBS. Macroscopic examinations were performed prior to the first dose, and 10 minutes following each dose. Slit lamp microscopic examinations were performed prior to the first dose and at termination. Ocular tissues were collected at termination and submitted for histological evaluation.
During the dosing period, there were some sporadic occurrences of conjunctival discharge as observed by macroscopic examination. However, they were equally divided between εePL-treated and PBS-treated eyes.

Where [4] appears, read: Staphylococcus aureus, cation-adjusted Mueller-Hinton broth, read-out: Minimum (MIC).
[5] abbreviates: Staphylococcus aureus, read-out: MIC50.
The mark [6] stands for this setting: Staphylococcus aureus, read-out: MIC90.
The mark [7] stands for this setting: Staphylococcus aureus, read-out: Maximum (MIC).
The mark [8] stands for this setting: cation-adjusted Mueller-Hinton broth.

Converted amounts (≈) assume the structure as drawn. Read-outs that look alike come from different tables or passages of the source.

For `COc1c(N2C[C@@H]3CCCN[C@@H]3C2)c(F)cc2c(=O)c(C(=O)O)cn(C3CC3)c12` [Moxifloxacin, moxifloxacin], the MIC was 0.03 µg/mL (≈ 0.0747 µM) in data set [1] (setting [4]), 1 µg/mL (≈ 2.49 µM) in data set [1] (setting [7]), 0.03 µg/mL (≈ 0.0747 µM) in data set [2] (setting [4]) and 8 µg/mL (≈ 19.9 µM) in data set [2] (setting [7]). The MIC50 in data set [1] (setting [5]) is 0.06 µg/mL (≈ 0.149 µM); in data set [2] (setting [5]), 1 µg/mL (≈ 2.49 µM). The MIC90 in data set [1] (setting [6]) is 1 µg/mL (≈ 2.49 µM); in data set [2] (setting [6]), 4 µg/mL (≈ 9.96 µM).
With `NC[C@H]1O[C@H](O[C@H]2[C@H](O)[C@@H](O[C@H]3O[C@H](CO)[C@@H](O)[C@H](N)[C@H]3O)[C@H](N)C[C@@H]2N)[C@H](N)C[C@@H]1O` [Tobramycin, tobramycin], the MIC in data set [1] (setting [4]) is 0.12 µg/mL (≈ 0.257 µM); in data set [1] (setting [7]) it was 1 µg/mL (≈ 2.14 µM); in data set [2] (setting [4]) it was 0.12 µg/mL (≈ 0.257 µM); in data set [2] (setting [7]), 64 µg/mL (≈ 137 µM). Also, the MIC50 in data set [1] (setting [5]) worked out at 0.25 µg/mL (≈ 0.535 µM); in data set [2] (setting [5]) it was 0.5 µg/mL (≈ 1.07 µM). For the same compound, the MIC90 came to 1 µg/mL (≈ 2.14 µM) in data set [1] (setting [6]) and 64 µg/mL (≈ 137 µM) in data set [2] (setting [6]).
Take ε-polylysine [εPL]: the “effect on the colony counts” value in the data set on MRSA strain K-950 is listed as “no effect”. The “Colony Counts” value is recorded as 4.65 × 10^5 CFU/ml with MRSA strain K-950 (0.25X MIC (1 μg/ml), 0 Hours); 3.90 × 10^5 CFU/ml in the data set with MRSA strain K-950 (0.25X MIC (1 μg/ml), 1 Hour); 9.75 × 10^5 CFU/ml in the data set with MRSA strain K-950 (0.25X MIC (1 μg/ml), 2 Hours); 2.95 × 10^7 CFU/ml in the data set on MRSA strain K-950 (0.25X MIC (1 μg/ml), 4 Hours); 5.90 × 10^6 CFU/ml in the data set with MRSA strain K-950 (0.25X MIC (1 μg/ml), 6 Hours); 1.19 × 10^7 CFU/ml with MRSA strain K-950 (0.25X MIC (1 μg/ml), 8 Hours). Further, the “Colony Counts” value in the data set on MRSA strain K-950 (0.25X MIC (1 μg/ml), 24 Hours) was 1.19 × 10^8 CFU/ml; in the data set with MRSA strain K-950 (1X MIC (4 μg/ml), 4 Hours), 6.30 × 10^4 CFU/ml; in the data set on MRSA strain K-950 (4X MIC (16 μg/ml), 0 Hours) it was 4.55 × 10^5 CFU/ml; in the data set with MRSA strain K-950 (4X MIC (16 μg/ml), 1 Hour), 4.25 × 10^5 CFU/ml; with MRSA strain K-950 (4X MIC (16 μg/ml), 2 Hours), 8.45 × 10^4 CFU/ml; in the data set with MRSA strain K-950 (4X MIC (16 μg/ml), 4 Hours), 1.92 × 10^3 CFU/ml. Moreover, the “Colony Counts” value was 2.10 × 10^2 CFU/ml in the data set on MRSA strain K-950 (4X MIC (16 μg/ml), 6 Hours); 3.00 × 10^1 CFU/ml with MRSA strain K-950 (4X MIC (16 μg/ml), 8 Hours); 7.10 × 10^3 CFU/ml with MRSA strain K-950 (4X MIC (16 μg/ml), 24 Hours). In addition, the “decrease of MRSA colony counts” value is “more than 3 logs” with MRSA strain K-950 (4 times the MIC (16.0 μg/ml)) and 2.4 Log with MRSA strain K-950 (at MIC). In the data set on MRSA strain K-950 (MRSA strain K-950), the “MIC of the tested strain” value was determined as 4.0 µg/mL. The “action against MRSA” value with MRSA strain K-950 (time-kill study, MRSA K-950) was “bactericidal”. Moreover, the “slit lamp microscopic examination and histologic findings” value in data set [3] (rabbits, 50, 150 and 500 μg/mL, eight doses in seven hours) was “did not reveal any abnormality”. The ocular tolerability result in data set [3] (rabbits, one drop in the eye eight times during a seven-hour period, concentrations up to 500 μg/mL in PBS pH 7.3) is “well tolerated”. Moreover, the figures for the MIC50 in data set [1] and in data set [2] were 8 µg/mL and 4 µg/mL, respectively. In addition, the MIC90 in data set [1] and in data set [2] was 8 µg/mL throughout. For the same compound, the “Maximum (MIC)” value in data set [1] and in data set [2] was 8 µg/mL in each case. Besides, the “Minimum (MIC)” value in data set [1] (setting [8]) and in data set [2] (setting [8]) was 4 µg/mL throughout. Moreover, in data set [2] (all 50 isolates tested (MSSA and MRSA)), the MICs range fell in the range of 4 to 8 µg/mL.
Consider polyhexamethylene biguanid [PHMB], for which, in data set [1], the MIC50 amounted to 2 µg/mL, the MIC90 amounted to 2 µg/mL and the “Maximum (MIC)” value was 2 µg/mL. For the same compound, the “Minimum (MIC)” value in data set [1] (setting [8]) amounted to 1 µg/mL. Also, in data set [2], the MIC50 amounted to 2 µg/mL, the MIC90 was determined as 2 µg/mL and the “Maximum (MIC)” value came to 4 µg/mL. In data set [2] (setting [8]), the “Minimum (MIC)” value was 1 µg/mL.
